Each compound was assayed against T1, human cloned 5-HT6 receptors (Homo sapiens, UniProt P50406) (assay: 5-HT6 binding affinity, [3H]-LSD displacement). Settings: not given.
T1 construct: expressed in transfected cells; host or cells: HeLa cells
Procedure: The affinity of test compounds for the serotonin 5-HT6 receptor is evaluated in the following manner. Cultured Hela cells expressing human cloned 5-HT6 receptors are harvested and centrifuged at low speed (1,000×g) for 10.0 min to remove the culture media. The harvested cells are suspended in half volume of fresh physiological phosphate buffered saline solution and recentrifuged at the same speed. This operation is repeated. The collected cells are then homogenized in ten volumes of 50 mM Tris.HCl (pH 7.4) and 0.5 mM EDTA. The homogenate is centrifuged at 40,000×g for 30.0 min and the precipitate is collected. The obtained pellet is resuspended in 10 volumes of Tris.HCl buffer and recentrifuged at the same speed. The final pellet is suspended in a small volume of Tris.HCl buffer and the tissue protein content is determined in aliquots of 10–25 μl volumes. Bovine Serum Albumin is used as the standard in the protein determination according to the method described in Lowry et al., J. Biol. Chem., 193:265 (1951). The volume of the suspended cell membranes is adjusted to give a tissue protein concentration of 1.0 mg/ml of suspension. The prepared membrane suspension (10 times concentrated) is aliquoted in 1.0 ml volumes and stored at −70° C. until used in subsequent binding experiments.
The reaction is allowed to proceed in the dark for 120 min at room temperature, at which time, the bound ligand-receptor complex is filtered off on a 96 well unifilter with a Packard Filtermate® 196 Harvester. The bound complex caught on the filter disk is allowed to air dry and the radioactivity is measured in a Packard TopCount® equipped with six photomultiplier detectors, after the addition of 40.0 μl Microscint®−20 scintillant to each shallow well. The unifilter plate is heat-sealed and counted in a PackardTopCount® with a tritium efficiency of 31.0%.
Binding in the presence of varying concentrations of test compound is expressed as a percentage of specific binding in the absence of test compound. The results are plotted as log % bound versus log concentration of test compound. […] A linear regression line of data points is plotted, from which the IC50 value is determined and the Ki value is determined based upon the following equation: Ki=IC50/(1+L/KD) where L is the concentration of the radioactive ligand used and KD is the dissociation constant of the ligand for the receptor, both expressed in nM.

T1 sequence (P50406 whole entry): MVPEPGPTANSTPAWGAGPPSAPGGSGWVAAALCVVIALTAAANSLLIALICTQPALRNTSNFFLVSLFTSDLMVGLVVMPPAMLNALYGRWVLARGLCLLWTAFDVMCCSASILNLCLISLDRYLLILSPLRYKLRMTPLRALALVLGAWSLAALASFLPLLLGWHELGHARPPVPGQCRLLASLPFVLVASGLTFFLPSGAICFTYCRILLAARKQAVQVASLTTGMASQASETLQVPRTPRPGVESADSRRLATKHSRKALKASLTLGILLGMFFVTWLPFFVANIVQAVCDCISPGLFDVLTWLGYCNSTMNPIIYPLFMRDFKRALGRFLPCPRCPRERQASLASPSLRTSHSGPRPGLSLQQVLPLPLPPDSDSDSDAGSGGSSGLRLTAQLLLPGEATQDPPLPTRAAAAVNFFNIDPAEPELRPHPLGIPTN

Compound	Ki [nM]
NCCc1cn(S(=O)(=O)c2ccccc2)c2sccc12 [Example 8, 2-[6-(phenylsulfonyl)-6H-thieno[2,3-b]pyrrol-4-yl]ethylamine]	7.5 ± 0.9

Same assay, conditions: membranes of Hela cells expressing human cloned 5-HT6 receptors; [3H]-LSD 3.0 nM; 120 min, room temperature; read-out: 5-HT6 Binding Ki

Ki [nM]	Compound
50 ± 1	Cc1nc(S(=O)(=O)n2cc(CCN(C)C)c3ccsc32)cn1C [Example 60, N,N-dimethyl-2-{[6-(1,2-dimethyl-1H-imidazol-4-yl)sulfonyl]-6H-thieno[2,3-b]pyrrol-4-yl}ethylamine]
20.3 ± 3.4	Cc1c(S(=O)(=O)n2cc(CCN(C)C)c3ccsc32)sc2ccc(Cl)cc12 [Example 45, N,N-dimethyl-2-{[6-(5-chloro-3-methylbenzo[b]thien-2-yl)sulfonyl]-6H-thieno[2,3-b]pyrrol-4-yl}ethylamine]
9.2 ± 0.8	NCCc1cn(S(=O)(=O)c2cccc3ccccc23)c2sccc12 [Example 28, 2-[6-(1-naphthylsulfonyl)-6H-thieno[2,3-b]pyrrol-4-yl]ethylamine]
9 ± 0.5	NCCc1cn(S(=O)(=O)c2cccc(Br)c2)c2sccc12 [Example 24, 2-{[6-(3-bromophenyl)sulfonyl]-6H-thieno[2,3-b]pyrrol-4-yl}ethylamine]
2.4 ± 0.3	NCCc1cn(S(=O)(=O)c2ccc(N)cc2)c2sccc12 [Example 35, 2-{[6-(4-aminophenyl)sulfonyl]-6H-thieno[2,3-b]pyrrol-4-yl}ethylamine]
2.3 ± 0.1	COc1cccc(S(=O)(=O)n2cc(CCN)c3ccsc32)c1 [Example 14, 2-{[6-(3-methoxyphenyl)sulfonyl]-6H-thieno[2,3-b]pyrrol-4-yl}ethylamine]
2.1 ± 0.2	CN(C)CCc1cn(S(=O)(=O)c2cccc(F)c2)c2sccc12 [Example 47, N,N-dimethyl-2-{[6-(3-fluorophenyl)sulfonyl]-6H-thieno[2,3-b]pyrrol-4-yl]-ethylamine]
2 ± 0.1	COc1cccc(S(=O)(=O)n2cc(CCN)c3sccc32)c1 [Example 67, 2-{[4-(3-methoxyphenyl)sulfonyl]-4H-thieno[3,2-b]pyrrol-6-yl}ethylamine]
134 ± 10.3	Cc1nc(S(=O)(=O)n2cc(CCN)c3ccsc32)cn1C [Example 30, 2-{[6-(1,2-dimethyl-1H-imidazol-4-yl)sulfonyl]-6H-thieno[2,3-b]pyrrol-4-yl}ethylamine]
24.3 ± 1.5	Cc1c(S(=O)(=O)n2cc(CCN(C)C)c3sccc32)sc2ccc(Cl)cc12 [Example 77]
25 ± 1	Cc1c(S(=O)(=O)n2cc(CCN)c3sccc32)sc2ccc(Cl)cc12 [Example 68]
12 ± 1.2	NCCc1cn(S(=O)(=O)c2ccccc2F)c2sccc12 [Example 16, 2-{[6-(2-fluorophenyl)sulfonyl]-6H-thieno[2,3-b]pyrrol-4-yl}ethylamine]
3.4 ± 0.6	NCCc1cn(S(=O)(=O)c2cnc3sccn23)c2sccc12 [Example 19, 2-{[6-(imidazo[2,1-b][1,3]thiazol-5-yl)sulfonyl]-6H-thieno[2,3-b]pyrrol-4}ethylamine]
16.7 ± 2.4	NCCc1cn(S(=O)(=O)c2ccc3ccccc3c2)c2sccc12 [Example 13, 2-[6-(2-naphthylsulfonyl)-6H-thieno[2,3-b]pyrrol-4-yl]ethylamine]
17.7 ± 3.2	NCCc1cn(S(=O)(=O)c2ccc(Br)s2)c2sccc12 [Example 25, 2-{[6-(5-bromothien-2-yl)sulfonyl]-6H-thieno[2,3-b]pyrrol-4-yl}ethylamine]
7.1 ± 0.2	NCCc1cn(S(=O)(=O)c2cccc(Cl)c2Cl)c2sccc12 [Example 23, 2-{[6-(2,3-dichlorophenyl)sulfonyl)-6H-thieno[2,3-b]pyrrol-4-yl}ethylamine]
102 ± 5.7	Cc1c(S(=O)(=O)n2cc(CCN)c3ccsc32)sc2ccc(Cl)cc12 [Example 15, 2-{[6-(5-chloro-3-methylbenzo[b]thien-2-yl)sulfonyl]-6H-thieno[2,3-b]pyrrol-4-yl}-ethylamine]
9.3 ± 0.7	NCCc1cn(S(=O)(=O)c2cccc(F)c2)c2sccc12 [Example 17, 2-{[6-(3-fluorophenyl)sulfonyl]-6H-thieno[2,3-b]pyrrol-4-yl}ethylamine]
21 ± 2.7	NCCc1cn(S(=O)(=O)c2ccccc2C(F)(F)F)c2sccc12 [Example 32, 2-{{[6-(2-trifluoromethyl)phenyl]sulfonyl}-6H-thieno[2,3-b]pyrrol-4-yl}ethylamine]
2.3 ± 0.5	CN(C)CCc1cn(S(=O)(=O)c2cccc(C(F)(F)F)c2)c2sccc12 [Example 39, N,N-dimethyl-2-{{[6-(3-trifluoromethyl)phenyl]sulfonyl}-6H-thieno[2,3-b]pyrrol-4-yl}-ethylamine]
1.3 ± 0.1	COc1cccc(S(=O)(=O)n2cc(CCN(C)C)c3sccc32)c1 [Example 76]
1.6	Cc1cccc(S(=O)(=O)n2cc(CCN(C)C)c3ccsc32)c1 [Example 59, N,N-dimethyl-2-{[6-(3-methylphenyl)sulfonyl]-6H-thieno[2,3-b]pyrrol-4-yl}ethylamine]
7.8 ± 0.4	Cc1cccc(S(=O)(=O)n2cc(CCN)c3ccsc32)c1 [Example 29, 2-{[6-(3-methylphenyl)sulfonyl]-6H-thieno[2,3-b]pyrrol-4-yl}ethylamine]
8.6 ± 0.8	NCCc1cn(S(=O)(=O)c2cccc3cccnc23)c2sccc12 [Example 31, 2-{[6-(quinolin-8-yl)sulfonyl]-6H-thieno[2,3-b]pyrrol-4-yl}-ethylamine]
0.2	CN(C)CCc1cn(S(=O)(=O)c2c(Cl)nc3sccn23)c2ccsc12 [Example 74]
0.9	CN(C)CCc1cn(S(=O)(=O)c2cccc(F)c2)c2ccsc12 [Example 79]
1.8 ± 0.1	CN(C)CCc1cn(S(=O)(=O)c2ccccc2F)c2sccc12 [Example 46, N,N-dimethyl-2-{[6-(2-fluorophenyl)sulfonyl]-6H-thieno[2,3-b]pyrrol-4-yl}ethylamine]
2.4 ± 0.2	CN(C)CCc1cn(S(=O)(=O)c2cccs2)c2sccc12 [Example 56, N,N-dimethyl-2-{(6-thien-2-ylsulfonyl)-6H-thieno[2,3-b]pyrrol-4-yl]-ethyllamine]

Compound	Ki [nM]
2-{[6-(5-Chlorothien-2-yl)sulfonyl]-6H-thieno[2,3-b]pyrrol-4-yl}ethylamine [Example 11]	4.9 ± 0.8
N,N-dimethyl-2-{[6-(6-chloroimidazo[2,1-b][1,3]thiazol-5-yl)sulfonyl]-6H-thieno[2,3-b]pyrrol-4-yl}ethylamine [Example 42]	0.9 ± 0.1
2-{[6-(2-chlorophenyl)sulfonyl]-6H-thieno[2,3-b]pyrrol-4-yl}ethylamine [Example 18]	13 ± 1.5
2-{[6-(2,6-dichloroimidazo[2,1-b][1,3]thiazol-5-yl)sulfonyl]-6H-thieno[2,3-b]pyrrol-4-yl}-ethylamine [Example 21]	21.3 ± 1.5
2-{[6-(6-Chloroimidazo[2,1-b][1,3]thiazol-5-yl)sulfonyl]-6H-thieno[2,3-b]pyrrol-4-yl}-ethylamine [Example 12]	2.1 ± 0.1
N,N-dimethyl-2-{[6-(4,5-dichlorothien-2-yl)sulfonyl]-6H-thieno[2,3-b]pyrrol-4-yl]-ethyl]-amine [Example 57]	4.9 ± 0.3
2-{[6-(2-chloroimidazo[1,2-a]pyrid-3-yl)sulfonyl]-6H-thieno[2,3-b]pyrrol-4-yl}-ethylamine [Example 20]	11.3 ± 0.3
N,N-dimethyl-2-{[6-(5-bromothien-2-yl)sulfonyl]-6H-thieno[2,3-b]pyrrol-4-ylethyl}-amine [Example 55]	1.1 ± 0.1
N,N-dimethyl-2-{[6-(4-chlorophenyl)sulfonyl]-6H-thieno[2,3-b]pyrrol-4-yl}ethylamine [Example 52]	2.6 ± 0.2
N,N-dimethyl-2-{[6-(2-chloroimidazo[1,2-a]pyridin-3-yl)sulfonyl]-6H-thieno[2,3-b]pyrrol-4-yl}ethylamine [Example 50]	2.1 ± 0.1
N,N-dimethyl-2-{[6-(imidazo[2,1-b][1,3]thiazol-5-yl)sulfonyl]-6H-thieno[2,3-b]pyrrol-4-yl}-ethylamine [Example 49]	1.1 ± 0.1
2-{[6-(4-chlorophenyl)sulfonyl]-6H-thieno[2,3-b]pyrrol-4-yl}ethylamine [Example 22]	13.3 ± 0.7
N,N-dimethyl-2-{[6-(2,3-dichlorophenyl)sulfonyl]-6H-thieno[2,3-b]pyrrol-4-yl}ethyl-amine [Example 53]	3 ± 0.1
N,N-dimethyl-2-{[6-(3-bromophenyl)sulfonyl]-6H-thieno[2,3-b]pyrrol-4-yl}-ethylamine [Example 54]	1.7 ± 0.1
N,N-dimethyl-2-[6-(2-naphthylsufonyl)-6H-thieno[2,3-b]pyrrol-4-yl]ethylamine [Example 43]	2.5 ± 0.2

— patent US7220756B2, “N-sulfonylheterocyclopyrrolyl-alkylamine compounds as 5-hydroxytryptamine-6 ligands” (Wyeth, priority 2003, dated 2007)
